ChEMBL document CHEMBL5154753, “Discovery and Structural Optimization of Toddacoumalone Derivatives as Novel PDE4 Inhibitors for the Topical Treatment of Psoriasis” (J Med Chem, 2022)
pIC50: −log10 of the molar value. ≈ marks a conversion by molar mass, not a printed value. Calls of active or inactive are those of the source. No cut-off for these calls is given here.

What was measured:
[1] = system: Mus musculus; assay: Anti-psoriatic activity in IMQ-induced BALB/c psoriasis mouse model assessed as reduction in total clinical score at 10 mg/kg, po for 7 days; type: functional, organism-based; settings: time 7.0 day
[2] = Half life in ICR mouse at 30 mg/kg, po measured upto 24 hrs by LC-MS/MS analysis; type: ADME, organism-based; settings: in vivo
[3] = C0 in ICR mouse at 10 mg/kg, iv measured upto 24 hrs by LC-MS/MS analysis; type: ADME, organism-based; settings: in vivo
[4] = AUC (0 to t) in ICR mouse at 10 mg/kg, iv measured upto 24 hrs by LC-MS/MS analysis; type: ADME, organism-based; design: dose 10 mg/kg, time < 24 hrs, route iv; settings: in vivo
[5] = molecular target: High affinity 3',5'-cyclic-AMP phosphodiesterase 7A (Homo sapiens, UniProt Q13946); assay: Inhibition of PDE7A1 (130 to 482 residues) (unknown origin) expressed in Escherichia coli BL21 using [3H-GMP] or [3H-AMP] as substrate incubated for 15 mins by liquid scintillation counting method
[6] = molecular target: Dual specificity calcium/calmodulin-dependent 3',5'-cyclic nucleotide phosphodiesterase 1B (Homo sapiens, UniProt Q01064); assay: Inhibition of PDE1B (10 to 487 residues) (unknown origin) expressed in Escherichia coli BL21 using [3H-GMP] or [3H-AMP] as substrate incubated for 15 mins by liquid scintillation counting method
[7] = system: Mus musculus; assay: Anti-psoriatic activity in IMQ-induced BALB/c psoriasis mouse model assessed as reduction IMQ- induced immune response by measuring change in spleen weight at 10 mg/kg, po for 7 days; type: functional, organism-based; settings: time 7.0 day
[8] = Tmax in ICR mouse at 30 mg/kg, po measured upto 24 hrs by LC-MS/MS analysis; type: ADME, organism-based; settings: in vivo
[9] = Stability in rat liver microsomes assessed as half life measure upto 45 mins in presence of NADPH by LC-MS analysis; type: ADME, Microsome
[10] = Toxicity in IMQ-induced BALB/c psoriasis mouse model assessed as body weight loss at 62.5 mg as 2% ointment, TOP daily and measured upto 7 days; settings: in vivo, topical_or_ocular, 168 h, time < 7 day
[11] = system: RAW264.7; assay: Cytotoxicity against mouse RAW264.7 cells assessed as cell viability incubated for 48 hrs; type: toxicity, cell-based; settings: raw264.7, 48 h
[12] = Toxicity in BALB/c mouse assessed as body weight loss at 62.5 mg as 2% ointment, TOP daily and measured upto 7 days; settings: in vivo, topical_or_ocular, 168 h, time < 7 day
[13] = system: Mus musculus; assay: Anti-psoriatic activity in IMQ-induced BALB/c psoriasis mouse model assessed as reduction in erythema score at 10 mg/kg, po for 7 days; type: functional, organism-based; settings: time 7.0 day
[14] = system: RAW264.7; assay: Anti-inflammatory activity against mouse RAW264.7 cells assessed as decrease in LPS-induced IL-6 mRNA levels incubated for 4 hrs followed LPS-stimulation for 24 hrs by SYBR green staining based qRT-PCR analysis; type: functional, cell-based; settings: time 28.0 hrs, DDE = dose-dependent effect
[15] = molecular target: cGMP-dependent 3',5'-cyclic phosphodiesterase (Homo sapiens, UniProt O00408); assay: Inhibition of PDE2A (580 to 919 residues) (unknown origin) expressed in Escherichia coli BL21 using [3H-GMP] or [3H-AMP] as substrate incubated for 15 mins by liquid scintillation counting method
[16] = species: Mus musculus; assay: Anti-psoriatic activity in IMQ-induced BALB/c psoriasis mouse model assessed as reduction in dermal cell proliferation at 62.5 mg as 4% ointment, TOP daily for 7 days by Ki67+ expression based immunohistochemistry analysis; type: functional, organism-based; settings: time 7.0 day
[17] = Aqueous solubility of compound by HPLC analysis; type: physicochemical; settings: buffer
[18] = AUC (0 to t) in ICR mouse at 30 mg/kg, po measured upto 24 hrs by LC-MS/MS analysis; type: ADME, organism-based; design: time < 24 hrs, dose 30 mg/kg, route po; settings: in vivo
[19] = molecular target: 3',5'-cyclic-AMP phosphodiesterase 4B (Homo sapiens, UniProt Q07343); assay: Inhibition of PDE4B2 (152 to 487 residues) (unknown origin) expressed in Escherichia coli BL21 using [3H-GMP] or [3H-AMP] as substrate incubated for 15 mins by liquid scintillation counting method
[20] = species: Mus musculus; assay: Anti-psoriatic activity in IMQ-induced BALB/c psoriasis mouse model assessed as reduction in epidermal cell proliferation at 62.5 mg as 4% ointment, TOP daily for 7 days by Ki67+ expression based immunohistochemistry analysis; type: functional, organism-based; settings: time 7.0 day
[21] = molecular target: Voltage-gated inwardly rectifying potassium channel KCNH2 (Homo sapiens, UniProt Q12809); assay: Inhibition of hERG by Q patch automated patch-clamp method; type: toxicity
[22] = Cmax in ICR mouse at 30 mg/kg, po measured upto 24 hrs by LC-MS/MS analysis; type: ADME, organism-based; design: time < 24 hrs, dose 30 mg/kg, route po; settings: in vivo
[23] = species: Mus musculus; assay: Anti-psoriatic activity in IMQ-induced BALB/c psoriasis mouse model assessed as reduction IMQ- induced immune response by measuring spleen weight loss at 62.5 mg as 2% ointment, TOP daily and measured upto 7 days; type: functional, organism-based; settings: time <= 7.0 day
[24] = species: Mus musculus; assay: Anti-psoriatic activity in IMQ-induced BALB/c psoriasis mouse model assessed as reduction in erythema score at 62.5 mg as 2% ointment, TOP daily and measured upto 7 days; type: functional, organism-based; settings: time <= 7.0 day, DDE = dose-dependent effect
[25] = species: Mus musculus; assay: Anti-psoriatic activity in IMQ-induced BALB/c psoriasis mouse model assessed as reduction in erythema score at 62.5 mg as 4% ointment, TOP daily and measured upto 7 days; type: functional, organism-based; settings: time <= 7.0 day, DDE = dose-dependent effect
[26] = molecular target: cGMP-specific 3',5'-cyclic phosphodiesterase (Homo sapiens, UniProt O76074); assay: Inhibition of PDE5A1 (535 to 860 residues) (unknown origin) expressed in Escherichia coli BL21 using [3H-GMP] or [3H-AMP] as substrate incubated for 15 mins by liquid scintillation counting method
[27] = Volume of distribution at steady state in ICR mouse at 10 mg/kg, iv measured upto 24 hrs by LC-MS/MS analysis; type: ADME, organism-based; settings: in vivo, read-out: Vdss
[28] = species: Mus musculus; assay: Anti-psoriatic activity in IMQ-induced BALB/c psoriasis mouse model assessed as reduction in dermal cell proliferation at 62.5 mg as 2% ointment, TOP daily for 7 days by Ki67+ expression based immunohistochemistry analysis; type: functional, organism-based; settings: time 7.0 day
[29] = species: Mus musculus; assay: Anti-psoriatic activity in IMQ-induced BALB/c psoriasis mouse model assessed as reduction in scales score at 62.5 mg as 2% ointment, TOP daily and measured upto 7 days; type: functional, organism-based; settings: time <= 7.0 day, DDE = dose-dependent effect
[30] = Clearance in ICR mouse at 10 mg/kg, iv measured upto 24 hrs by LC-MS/MS analysis; type: ADME, organism-based; settings: in vivo
[31] = Toxicity in BALB/c mouse assessed as body weight loss at 62.5 mg as 4% ointment, TOP daily and measured upto 7 days; settings: in vivo, topical_or_ocular, 168 h, time < 7 day
[32] = Stability in human liver microsomes assessed as half life measure upto 45 mins in presence of NADPH by LC-MS analysis; type: ADME, Microsome
[33] = molecular target: High affinity cGMP-specific 3',5'-cyclic phosphodiesterase 9A (Homo sapiens, UniProt O76083); assay: Inhibition of PDE9A2 (181 to 506 residues) (unknown origin) expressed in Escherichia coli BL21 using [3H-GMP] or [3H-AMP] as substrate incubated for 15 mins by liquid scintillation counting method
[34] = Toxicity in BALB/c mouse assessed as skin lesions at 62.5 mg as 4% ointment, TOP daily and measured upto 7 days; settings: in vivo, topical_or_ocular, 168 h, time < 7 day

Chain of 3',5'-cyclic-AMP phosphodiesterase 4B (Q07343 whole entry, the tested form may be a part): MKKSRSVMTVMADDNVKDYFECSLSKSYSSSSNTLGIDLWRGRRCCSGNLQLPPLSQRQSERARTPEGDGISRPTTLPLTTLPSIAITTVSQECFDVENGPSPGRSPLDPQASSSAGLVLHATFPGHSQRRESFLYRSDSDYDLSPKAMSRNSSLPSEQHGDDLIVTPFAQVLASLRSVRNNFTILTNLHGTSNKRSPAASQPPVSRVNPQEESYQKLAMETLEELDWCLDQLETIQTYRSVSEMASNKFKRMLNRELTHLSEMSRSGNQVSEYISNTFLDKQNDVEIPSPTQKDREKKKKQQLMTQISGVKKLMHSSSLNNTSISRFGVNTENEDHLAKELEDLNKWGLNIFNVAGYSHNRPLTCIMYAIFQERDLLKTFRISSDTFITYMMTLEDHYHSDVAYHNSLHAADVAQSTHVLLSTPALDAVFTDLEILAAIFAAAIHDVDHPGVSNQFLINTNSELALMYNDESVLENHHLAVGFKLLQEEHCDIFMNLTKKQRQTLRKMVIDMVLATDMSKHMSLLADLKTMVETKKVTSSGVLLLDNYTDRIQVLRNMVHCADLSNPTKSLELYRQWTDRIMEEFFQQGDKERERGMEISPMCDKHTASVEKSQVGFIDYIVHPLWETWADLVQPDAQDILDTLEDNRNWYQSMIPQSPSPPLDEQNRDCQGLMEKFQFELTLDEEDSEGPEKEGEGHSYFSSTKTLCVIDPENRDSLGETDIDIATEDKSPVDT
Chain of High affinity cGMP-specific 3',5'-cyclic phosphodiesterase 9A (O76083 whole entry, the tested form may be a part): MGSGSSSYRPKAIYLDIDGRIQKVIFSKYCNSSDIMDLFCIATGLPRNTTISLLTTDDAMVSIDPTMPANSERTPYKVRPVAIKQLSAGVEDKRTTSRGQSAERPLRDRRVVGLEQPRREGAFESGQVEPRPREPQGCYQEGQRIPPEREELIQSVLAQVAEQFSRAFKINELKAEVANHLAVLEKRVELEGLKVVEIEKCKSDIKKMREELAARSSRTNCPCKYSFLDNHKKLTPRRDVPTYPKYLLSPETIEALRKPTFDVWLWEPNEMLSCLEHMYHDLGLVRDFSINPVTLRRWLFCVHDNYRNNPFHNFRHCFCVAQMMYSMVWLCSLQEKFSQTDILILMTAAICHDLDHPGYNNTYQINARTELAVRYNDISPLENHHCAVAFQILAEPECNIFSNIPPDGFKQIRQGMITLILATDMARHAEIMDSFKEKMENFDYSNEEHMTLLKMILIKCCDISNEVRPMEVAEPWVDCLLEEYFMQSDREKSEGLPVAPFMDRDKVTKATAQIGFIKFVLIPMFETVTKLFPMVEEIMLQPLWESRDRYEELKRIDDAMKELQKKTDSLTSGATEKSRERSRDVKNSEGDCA
Chain of cGMP-dependent 3',5'-cyclic phosphodiesterase (O00408 whole entry, the tested form may be a part): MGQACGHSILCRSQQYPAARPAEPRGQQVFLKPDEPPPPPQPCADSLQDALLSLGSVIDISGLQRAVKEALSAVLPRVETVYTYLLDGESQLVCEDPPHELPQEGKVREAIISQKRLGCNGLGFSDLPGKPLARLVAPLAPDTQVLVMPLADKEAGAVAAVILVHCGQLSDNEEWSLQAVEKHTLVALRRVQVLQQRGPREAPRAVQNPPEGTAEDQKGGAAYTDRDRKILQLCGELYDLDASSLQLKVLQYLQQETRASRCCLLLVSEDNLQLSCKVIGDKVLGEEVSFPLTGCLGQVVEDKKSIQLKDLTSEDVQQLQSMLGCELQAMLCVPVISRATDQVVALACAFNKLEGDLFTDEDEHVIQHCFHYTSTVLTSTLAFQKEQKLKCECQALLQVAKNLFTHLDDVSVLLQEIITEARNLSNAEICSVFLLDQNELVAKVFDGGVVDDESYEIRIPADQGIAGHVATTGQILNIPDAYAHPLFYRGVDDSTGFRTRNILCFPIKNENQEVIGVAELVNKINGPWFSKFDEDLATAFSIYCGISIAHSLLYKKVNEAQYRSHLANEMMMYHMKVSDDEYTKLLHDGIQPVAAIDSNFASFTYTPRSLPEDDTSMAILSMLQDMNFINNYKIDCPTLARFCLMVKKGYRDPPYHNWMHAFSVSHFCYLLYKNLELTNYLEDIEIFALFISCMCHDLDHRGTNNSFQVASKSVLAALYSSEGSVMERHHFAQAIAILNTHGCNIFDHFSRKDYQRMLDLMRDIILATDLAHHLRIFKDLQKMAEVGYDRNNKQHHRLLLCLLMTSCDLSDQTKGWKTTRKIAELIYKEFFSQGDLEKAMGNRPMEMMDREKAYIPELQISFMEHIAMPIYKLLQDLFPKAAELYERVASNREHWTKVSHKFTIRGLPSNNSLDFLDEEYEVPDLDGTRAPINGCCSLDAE
Chain of Voltage-gated inwardly rectifying potassium channel KCNH2 (Q12809 whole entry): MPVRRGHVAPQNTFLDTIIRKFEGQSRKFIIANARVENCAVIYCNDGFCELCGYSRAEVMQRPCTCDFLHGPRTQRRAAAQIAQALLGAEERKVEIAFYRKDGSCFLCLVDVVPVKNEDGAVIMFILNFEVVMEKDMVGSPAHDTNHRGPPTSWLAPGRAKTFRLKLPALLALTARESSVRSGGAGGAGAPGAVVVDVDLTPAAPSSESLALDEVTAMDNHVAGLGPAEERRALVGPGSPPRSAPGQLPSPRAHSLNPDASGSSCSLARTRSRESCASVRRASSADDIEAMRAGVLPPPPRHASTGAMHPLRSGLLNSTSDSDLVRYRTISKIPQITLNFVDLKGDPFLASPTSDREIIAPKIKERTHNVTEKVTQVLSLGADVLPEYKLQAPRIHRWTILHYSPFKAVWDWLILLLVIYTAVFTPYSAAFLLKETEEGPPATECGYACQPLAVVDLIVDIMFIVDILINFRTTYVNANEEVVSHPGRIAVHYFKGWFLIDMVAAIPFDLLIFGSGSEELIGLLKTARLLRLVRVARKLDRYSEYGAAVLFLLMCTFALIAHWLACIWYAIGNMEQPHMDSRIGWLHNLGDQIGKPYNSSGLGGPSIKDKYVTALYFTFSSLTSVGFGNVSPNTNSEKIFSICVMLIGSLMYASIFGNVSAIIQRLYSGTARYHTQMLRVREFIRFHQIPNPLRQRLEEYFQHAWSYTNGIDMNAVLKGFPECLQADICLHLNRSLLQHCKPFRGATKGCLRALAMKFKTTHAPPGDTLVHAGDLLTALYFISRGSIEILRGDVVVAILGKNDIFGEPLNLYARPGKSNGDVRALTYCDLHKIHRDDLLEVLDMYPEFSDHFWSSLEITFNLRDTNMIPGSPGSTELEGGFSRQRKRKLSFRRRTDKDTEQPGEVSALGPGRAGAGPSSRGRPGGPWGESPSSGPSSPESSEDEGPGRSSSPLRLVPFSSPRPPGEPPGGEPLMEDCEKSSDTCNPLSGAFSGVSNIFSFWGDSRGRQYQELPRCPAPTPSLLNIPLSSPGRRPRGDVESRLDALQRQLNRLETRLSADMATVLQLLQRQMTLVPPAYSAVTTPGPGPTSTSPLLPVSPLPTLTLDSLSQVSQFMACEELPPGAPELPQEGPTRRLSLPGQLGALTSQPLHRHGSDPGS
Chain of High affinity 3',5'-cyclic-AMP phosphodiesterase 7A (Q13946 whole entry, the tested form may be a part): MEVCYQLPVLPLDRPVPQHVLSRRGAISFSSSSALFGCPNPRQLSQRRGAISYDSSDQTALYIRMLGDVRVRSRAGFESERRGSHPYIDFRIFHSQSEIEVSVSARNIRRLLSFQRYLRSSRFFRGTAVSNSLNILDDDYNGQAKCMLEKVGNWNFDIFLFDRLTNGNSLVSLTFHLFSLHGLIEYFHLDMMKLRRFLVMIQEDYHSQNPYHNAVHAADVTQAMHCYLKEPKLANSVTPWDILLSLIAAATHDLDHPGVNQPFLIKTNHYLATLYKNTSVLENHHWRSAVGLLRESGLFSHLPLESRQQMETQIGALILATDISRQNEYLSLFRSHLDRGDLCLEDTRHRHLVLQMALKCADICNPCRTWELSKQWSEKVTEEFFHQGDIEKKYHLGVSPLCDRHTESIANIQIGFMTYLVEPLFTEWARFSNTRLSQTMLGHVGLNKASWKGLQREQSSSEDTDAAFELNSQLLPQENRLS
Chain of Dual specificity calcium/calmodulin-dependent 3',5'-cyclic nucleotide phosphodiesterase 1B (Q01064 whole entry, the tested form may be a part): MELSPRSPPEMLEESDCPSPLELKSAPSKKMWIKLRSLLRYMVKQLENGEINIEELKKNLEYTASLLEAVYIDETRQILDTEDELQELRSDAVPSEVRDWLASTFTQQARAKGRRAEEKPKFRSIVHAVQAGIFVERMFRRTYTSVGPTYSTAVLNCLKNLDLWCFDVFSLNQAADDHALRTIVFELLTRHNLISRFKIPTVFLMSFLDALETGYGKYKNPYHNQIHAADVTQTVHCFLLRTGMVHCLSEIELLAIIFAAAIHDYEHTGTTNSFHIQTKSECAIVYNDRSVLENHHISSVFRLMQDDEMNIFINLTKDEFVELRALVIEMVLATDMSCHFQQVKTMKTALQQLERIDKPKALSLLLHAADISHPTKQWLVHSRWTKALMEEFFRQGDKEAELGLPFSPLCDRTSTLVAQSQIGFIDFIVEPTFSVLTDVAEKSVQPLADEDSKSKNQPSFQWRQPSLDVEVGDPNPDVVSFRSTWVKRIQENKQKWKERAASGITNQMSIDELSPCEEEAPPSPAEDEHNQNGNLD

CCn1c(=O)c2c(c3ccc(C)nc31)O[C@@](C)(CCO)C[C@H]2C=C(C)C
Activity [1]: Active | half-life [2]: 109 min | C0 at 24 h [3]: 20600 ng/mL | AUC(0-t) at 24 h [4]: 2610 ng·h/mL | pIC50 [5]: 5.67 | pIC50 [6]: < 5.00 | Activity [7]: Active | Tmax [8]: 60 min | half-life [9]: 2.9 min | Activity [10]: Non-Toxic | Activity [11]: Non-Toxic | Activity [12]: Non-Toxic | Activity [13]: Active | Activity [14]: Dde | pIC50 [15]: 5.82 | Activity [16]: Active | solubility [17]: 10 µg/mL (≈ 28.1 µM) | AUC(0-t) at 24 h [18]: 1130 ng·h/mL | pIC50 [19]: 8.49 | Activity [20]: Active | pIC50 [21]: < 4.30 | Cmax [22]: 391 ng/mL | Activity [23]: Active | Activity [24]: Dde | Activity [25]: Dde | pIC50 [26]: 5.37 | Vd [27]: 0.77 L/kg | Activity [28]: Active | Activity [29]: Dde | clearance [30]: 63.8 mL/min/kg | Activity [31]: Non-Toxic | half-life [32]: 0.9 min | pIC50 [33]: < 5.00 | Activity [34]: Non-Toxic
